In patent US10736883B2, “Triazole furan compounds as agonists of the APJ receptor” (AMGEN INC., priority 2016, dated 2020):

Target: APJ receptor (Homo sapiens (Human), UniProt P35414)
Assay: [35S]GTPγS binding assay on membranes from CHO cells stably expressing human APJ receptor
Format: biochemical
Conditions: membranes of CHO cells stably expressing human APJ receptor, means of several independent experiments, read-out: Activity hAPJ SPA EC50 IP
In short: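 Membranes from CHO cells stably expressing human APJ were incubated with 0.2 nM [35S]GTPγS and ligands for 90 min at RT in 20 mM HEPES pH 7.5, 5 mM MgCl2, 200 mM NaCl, 3 μM GDP, 0.1% BSA with WGA PS beads. Nonspecific binding was set with 100 μM GTPγS. EC50 came from non-linear regression.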

Chain of APJ receptor (P35414 whole entry): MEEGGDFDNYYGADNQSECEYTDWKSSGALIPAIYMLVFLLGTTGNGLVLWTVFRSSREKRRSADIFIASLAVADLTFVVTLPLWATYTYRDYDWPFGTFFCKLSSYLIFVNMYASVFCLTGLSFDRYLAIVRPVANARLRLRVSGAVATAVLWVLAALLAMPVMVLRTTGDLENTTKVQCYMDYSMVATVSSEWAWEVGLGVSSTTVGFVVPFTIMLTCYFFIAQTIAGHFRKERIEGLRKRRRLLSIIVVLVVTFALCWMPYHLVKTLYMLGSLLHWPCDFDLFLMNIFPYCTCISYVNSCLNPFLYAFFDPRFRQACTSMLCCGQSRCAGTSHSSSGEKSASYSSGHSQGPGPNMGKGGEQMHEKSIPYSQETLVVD

| Structure (SMILES) | EC50 [nM] |
| --- | --- |
| COc1cccc(OC)c1-n1c(NS(=O)(=O)[C@H](C)Cc2ncc(F)cn2)nnc1-c1cc(C)c(C)o1 (single isomer, unassigned) [Example 91.0, (R)—N-(4-(2,6-Dimethoxyphenyl)-5-(4,5-dimethylfuran-2-yl)-4H-1,2,4-triazol-3-yl)-1-(5-fluoropyrimidin-2-yl)propane-2-sulfonamide or (S)—N-(4-(2,6-dimethoxyphenyl)-5-(4,5-dimethylfuran-2-yl)-4H-1,2,4-triazol-3-yl)-1-(5-fluoropyrimidin-2-yl)propane-2-sulfonamide] | 4.2 |
| COc1cccc(OC)c1-n1c(NS(=O)(=O)[C@H](C)[C@@H](O)c2ncc(F)cn2)nnc1-c1ccc(C)o1 (single isomer, unassigned) [Example 93.0, (1R,2S)—N-(4-(2,6-Dimethoxyphenyl)-5-(5-methyl-2-furanyl)-4H-1,2,4-triazol-3-yl)-1-(5-fluoro-2-pyrimidinyl)-1-hydroxy-2-propanesulfonamide or (1S,2R)—N-(4-(2,6-dimethoxyphenyl)-5-(5-methyl-2-furanyl)-4H-1,2,4-triazol-3-yl)-1-(5-fluoro-2-pyrimidinyl)-1-hydroxy-2-propanesulfonamide] | 0.14 |
| CCc1ccc(-c2nnc(NS(=O)(=O)[C@@H](C)Cc3ncc(F)cn3)n2-c2c(OC)cccc2OC)o1 (single isomer, unassigned) [Example 97.0, (2S)—N-(4-(2,6-Dimethoxyphenyl)-5-(5-ethyl-2-furanyl)-4H-1,2,4-triazol-3-yl)-1-(5-fluoro-2-pyrimidinyl)-2-propanesulfonamide or (2R)—N-(4-(2,6-dimethoxyphenyl)-5-(5-ethyl-2-furanyl)-4H-1,2,4-triazol-3-yl)-1-(5-fluoro-2-pyrimidinyl)-2-propanesulfonamide] | 0.4 |
| CCc1ccc(-c2nnc(NS(=O)(=O)[C@@H](C)Cc3ncc(F)cn3)n2-c2c(OC)cccc2OC)o1 (single isomer, unassigned) [Example 99.0, (2S)—N-(4-(2,6-Dimethoxyphenyl)-5-(5-ethyl-2-furanyl)-4H-1,2,4-triazol-3-yl)-1-(5-fluoro-2-pyrimidinyl)-2-propanesulfonamide or (2R)—N-(4-(2,6-dimethoxyphenyl)-5-(5-ethyl-2-furanyl)-4H-1,2,4-triazol-3-yl)-1-(5-fluoro-2-pyrimidinyl)-2-propanesulfonamide] | 1 |
| COc1cccc(OC)c1-n1c(NS(=O)(=O)[C@@H]2CCC[C@H]2c2ncc(F)cn2)nnc1-c1ccc(C)o1 (single isomer, unassigned) [Example 101.0, (1R,2S)—N-(4-(2,6-Dimethoxyphenyl)-5-(5-methyl-2-furanyl)-4H-1,2,4-triazol-3-yl)-2-(5-fluoro-2-pyrimidinyl)cyclopentanesulfonamide or (1S,2R)—N-(4-(2,6-dimethoxyphenyl)-5-(5-methyl-2-furanyl)-4H-1,2,4-triazol-3-yl)-2-(5-fluoro-2-pyrimidinyl)cyclopentanesulfonamide] | 2 |
| COc1cccc(OC)c1-n1c(NS(=O)(=O)[C@@H]2CCC[C@H]2c2ncc(F)cn2)nnc1-c1ccco1 (single isomer, unassigned) [Example 104.0, (1R,2S)—N-(4-(2,6-Dimethoxyphenyl)-5-(2-furanyl)-4H-1,2,4-triazol-3-yl)-2-(5-fluoro-2-pyrimidinyl)cyclopentanesulfonamide or (1S,2R)—N-(4-(2,6-dimethoxyphenyl)-5-(2-furanyl)-4H-1,2,4-triazol-3-yl)-2-(5-fluoro-2-pyrimidinyl)cyclopentanesulfonamide] | 22 |
| COc1cccc(OC)c1-n1c(NS(=O)(=O)[C@@H](C)[C@H](OC)c2ncc(F)cn2)nnc1-c1ccc(C)o1 (single isomer, unassigned) [Example 116.0, (1R,2S)-N-(4-(2,6-dimethoxyphenyl)-5-(5-methylfuran-2-yl)-4H-1,2,4-triazol-3-yl)-1-(5-fluoropyrimidin-2-yl)-1-methoxypropane-2-sulfonamide or (1S,2R)-N-(4-(2,6-dimethoxyphenyl)-5-(5-methylfuran-2-yl)-4H-1,2,4-triazol-3-yl)-1-(5-fluoropyrimidin-2-yl)-1-methoxypropane-2-sulfonamide] | 0.056 |
| CCO[C@@H](c1ncc(C)cn1)[C@H](C)S(=O)(=O)Nc1nnc(-c2ccc(C)o2)n1-c1c(OC)cccc1OC (single isomer, unassigned) [Example 117.0, (1S,2S)-N-(4-(2,6-dimethoxyphenyl)-5-(5-methylfuran-2-yl)-4H-1,2,4-triazol-3-yl)-1-ethoxy-1-(5-methylpyrimidin-2-yl)propane-2-sulfonamide or (1R,2R)-N-(4-(2,6-dimethoxyphenyl)-5-(5-methylfuran-2-yl)-4H-1,2,4-triazol-3-yl)-1-ethoxy-1-(5-methylpyrimidin-2-yl)propane-2-sulfonamide] | 0.061 |
| CCO[C@H](c1ncc(C)cn1)[C@H](C)S(=O)(=O)Nc1nnc(-c2ccc(C)o2)n1-c1c(OC)cccc1OC (single isomer, unassigned) [Example 118.0] | 0.084 |
| COc1cccc(OC)c1-n1c(NS(=O)(=O)[C@H](C)[C@H](OC)c2ncc(F)cn2)nnc1-c1ccc(C)o1 (single isomer, unassigned) [Example 122.0, (1R,2R)-N-(4-(2,6-dimethoxyphenyl)-5-(5-methylfuran-2-yl)-4H-1,2,4-triazol-3-yl)-1-(5-fluoropyrimidin-2-yl)-1-methoxypropane-2-sulfonamide or (1S,2S)-N-(4-(2,6-dimethoxyphenyl)-5-(5-methylfuran-2-yl)-4H-1,2,4-triazol-3-yl)-1-(5-fluoropyrimidin-2-yl)-1-methoxypropane-2-sulfonamide] | 0.22 |
| COc1cccc(OC)c1-n1c(NS(=O)(=O)C[C@@H](C)c2ncc(F)cn2)nnc1-c1ccc(C)o1 (single isomer, unassigned) [Example 123.0, (S)—N-(4-(2,6-Dimethoxyphenyl)-5-(5-methylfuran-2-yl)-4H-1,2,4-triazol-3-yl)-2-(5-fluoropyrimidin-2-yl)propane-1-sulfonamide or (R)—N-(4-(2,6-dimethoxyphenyl)-5-(5-methylfuran-2-yl)-4H-1,2,4-triazol-3-yl)-2-(5-fluoropyrimidin-2-yl)propane-1-sulfonamide] | 0.24 |
| COc1cccc(OC)c1-n1c(NS(=O)(=O)C[C@@H](C)c2ncc(F)cn2)nnc1-c1ccc(C)o1 (single isomer, unassigned) [Example 126.0, (S)—N-(4-(2,6-Dimethoxyphenyl)-5-(5-methylfuran-2-yl)-4H-1,2,4-triazol-3-yl)-2-(5-fluoropyrimidin-2-yl)propane-1-sulfonamide or (R)—N-(4-(2,6-dimethoxyphenyl)-5-(5-methylfuran-2-yl)-4H-1,2,4-triazol-3-yl)-2-(5-fluoropyrimidin-2-yl)propane-1-sulfonamide] | 0.45 |
| CCO[C@H](c1ncc(C)cn1)[C@@H](C)S(=O)(=O)Nc1nnc(-c2ccc(C)o2)n1-c1c(OC)cccc1OC (single isomer, unassigned) [Example 130.0, (1R,2R)-N-(4-(2,6-dimethoxyphenyl)-5-(5-methylfuran-2-yl)-4H-1,2,4-triazol-3-yl)-1-ethoxy-1-(5-methylpyrimidin-2-yl)propane-2-sulfonamide or (1S,2S)-N-(4-(2,6-dimethoxyphenyl)-5-(5-methylfuran-2-yl)-4H-1,2,4-triazol-3-yl)-1-ethoxy-1-(5-methylpyrimidin-2-yl)propane-2-sulfonamide] | 3.5 |
| COc1cccc(OC)c1-n1c(NS(=O)(=O)[C@@H](C)[C@@H](OC)c2ncc(F)cn2)nnc1-c1ccc(C)o1 (single isomer, unassigned) [Example 132.0, (1S,2S)-N-(4-(2,6-dimethoxyphenyl)-5-(5-methylfuran-2-yl)-4H-1,2,4-triazol-3-yl)-1-(5-fluoropyrimidin-2-yl)-1-methoxypropane-2-sulfonamide or (1R,2R)-N-(4-(2,6-dimethoxyphenyl)-5-(5-methylfuran-2-yl)-4H-1,2,4-triazol-3-yl)-1-(5-fluoropyrimidin-2-yl)-1-methoxypropane-2-sulfonamide] | 6.8 |
| CC[C@H](Cc1ncc(F)cn1)S(=O)(=O)Nc1nnc(-c2ccc(C)o2)n1-c1c(OC)cccc1OC (single isomer, unassigned) [Example 134.0, (R)—N-(4-(2,6-dimethoxyphenyl)-5-(5-methylfuran-2-yl)-4H-1,2,4-triazol-3-yl)-1-(5-fluoropyrimidin-2-yl)butane-2-sulfonamide or (S)—N-(4-(2,6-dimethoxyphenyl)-5-(5-methylfuran-2-yl)-4H-1,2,4-triazol-3-yl)-1-(5-fluoropyrimidin-2-yl)butane-2-sulfonamide] | 10 |
| CC[C@H](Cc1ncc(F)cn1)S(=O)(=O)Nc1nnc(-c2ccco2)n1-c1c(OC)cccc1OC (single isomer, unassigned) [Example 136.0, (R)—N-(4-(2,6-Dimethoxyphenyl)-5-(furan-2-yl)-4H-1,2,4-triazol-3-yl)-1-(5-fluoropyrimidin-2-yl)butane-2-sulfonamide or (S)—N-(4-(2,6-dimethoxyphenyl)-5-(furan-2-yl)-4H-1,2,4-triazol-3-yl)-1-(5-fluoropyrimidin-2-yl)butane-2-sulfonamide] | 19 |
| COc1cccc(OC)c1-n1c(NS(=O)(=O)[C@H](C)[C@@H](OC)c2ccc(C#N)cc2C#N)nnc1-c1ccc(C)o1 (single isomer, unassigned) [Example 143.0, (1S,2R)-1-(2,4-Dicyanophenyl)-N-(4-(2,6-dimethoxyphenyl)-5-(5-methyl-2-furanyl)-4H-1,2,4-triazol-3-yl)-1-methoxy-2-propanesulfonamide or (1R,2S)-1-(2,4-dicyanophenyl)-N-(4-(2,6-dimethoxyphenyl)-5-(5-methyl-2-furanyl)-4H-1,2,4-triazol-3-yl)-1-methoxy-2-propanesulfonamide] | 0.072 |
